Columns and labels:
[1] = test system: heart, skeletal muscle, skin, brain; assay: In vivo translocation of peptide-displaying phage into tissue parenchyma; parameters: species or system mouse
Experimental: (§1) Another method used was to perfuse murine hearts ex-vivo on a Langendorf apparatus, administer the phage through the coronary circulation, and then rescue the phage that entered the myocardium. In vivo experiments were also done in which phage was injected into the general circulation of a mouse, any phage binding to the vasculature was removed by treatment with an enzyme solution, and then phage that had entered tissue parenchyma were rescued and enriched.

skin = assay: Homing of peptide after intravenous delivery in vivo; parameters: species or system mouse
Experimental: as §1

[2] = test system: endothelial cells (HUVEC cells); assay: Internalization of rhodamine-labeled peptide into endothelial cells; format: cell-based, human; settings: FIG. 3A
Source text: (§2) To test the properties of the peptides defined, small scale synthesis of these peptides was ordered, labeled with rhodamine for fluorescent localization, from the Keck facility at Yale University. They were then used in in vitro and in vivo experiments to investigate the ability of these peptides to enter cells and tissues.
(§3) FIGS. 3A and 3B show pictures depicting highly efficient internalization of these peptides into cells in culture. One such transport peptide is RRGRRRGR.

[3] = test system: rat aortic and adult human smooth muscle cells; assay: Internalization of rhodamine-labeled peptide into smooth muscle cells; format: cell-based; settings: FIG. 3B
Source text: as §2, §3

[4] = test system: parenchyma of the heart (myocardium); assay: Uptake of rhodamine-labeled peptide into heart after coronary infusion; format: in vivo, mouse; settings: single pass infusion through the coronary circulation, FIGS. 4A-C
Source text: In experiments designed to test the ability of these peptides to cross the endothelium and enter cells in vivo, synthetic transport peptides labeled with the fluorescent marker rhodamine were infused into the coronary circulation of mice. […] Peptides selected for internalization were capable of internalizing into the myocardium efficiently.
One such transport peptide is RRGRRRGR.

Substance: LLAVPAA (Transport peptide)
- crossing the blood brain barrier and entry into the brain [1]: appears capable of crossing the blood brain barrier and entry into the brain
- translocating phage into tissues ([1]; phage displaying the peptide, heart, skeletal muscle, skin): capable of translocating phage into heart, skeletal muscle, skin

Substance: GSRHPPL (Transport peptide)
- homing (tissue targeting) (skin): appears to significantly target skin

Substance: RRGRRRGR (Transport peptide)
- uptake (internalization) into endothelial cells [2]: efficient uptake
- uptake (internalization) into smooth muscle cells [3]: efficient uptake
- uptake into the parenchyma of the heart [4]: efficient uptake
